Results on one compound are retold here after paper PMC8301025 (Biology, 2021).

For orientation: Km means the substrate concentration at which the rate is half of its maximum.

The assay deals with T1, CLas GMPS.
T1 construct: gene guaA
The conditions noted are these: read-out: (NH4)2SO4, Km mM; saturating XMP and ATP, 20 mM MgCl2, pH 8.5; salt printed as (NH4)2SO4 in table, NH4Cl in methods; text prints 10.9 ± 1.9 mM.

Turning to `N` [NH4+], the Km worked out at 10.9 ± 1.3 mM.
